Experimental data published in PubChem BioAssay (NCI).
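Five compound concentrations were applied to cells in 96-well plates for 48 hours; endpoints were derived by simple linear interpolation of the resulting dose-response curve. TGI denotes the concentration required for complete inhibition of growth.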

Columns and labels:
Test in all cases: NCI-60 cell line screen, 48 h
[1] = tested on: MALME-3M melanoma
[2] = tested on: OVCAR-3 ovarian
[3] = tested on: CCRF-CEM leukemia
[4] = tested on: COLO 205 colon
[5] = tested on: SN12C renal
[6] = tested on: DU-145 prostate
[7] = tested on: HS 578T breast
[8] = tested on: LOX IMVI melanoma
[9] = tested on: OVCAR-4 ovarian
[10] = tested on: ACHN renal
[11] = tested on: PC-3 prostate
[12] = tested on: U251 CNS
[13] = tested on: SNB-75 CNS
[14] = tested on: UACC-257 melanoma
[15] = tested on: NCI-H226 lung
[16] = tested on: UO-31 renal
[17] = tested on: MOLT-4 leukemia
[18] = tested on: T-47D breast
[19] = tested on: M14 melanoma

| SMILES | TGI [1] | TGI [2] | TGI [3] | TGI [4] | TGI [5] | TGI [6] | TGI [7] | TGI [8] | TGI [9] | TGI [10] | TGI [11] | TGI [12] | TGI [13] | TGI [14] | TGI [15] | TGI [16] | TGI [17] | TGI [18] | TGI [19] |
| --- | --- | --- | --- | --- | --- | --- | --- | --- | --- | --- | --- | --- | --- | --- | --- | --- | --- | --- | --- |
| CC1(C)CN=C(c2ccc3c(c2)Cc2cc(C4=NCC(C)(C)N4)ccc2-3)N1 | 61.2 µM | > 100 µM | > 100 µM | > 100 µM | > 100 µM | > 100 µM | > 100 µM | > 100 µM | > 100 µM | > 100 µM | > 100 µM | 64.8 µM | > 100 µM | > 100 µM | > 100 µM | > 100 µM | > 100 µM | > 100 µM | > 100 µM |
| CC(C)=CCC[C@@H](C)C1=C(O)C(O)C(C)=C2N=C(c3ccccc3)C(=O)OC21 (stereo partly drawn) | 15.4 µM | > 25 µM | > 5.47 µM | > 25 µM | > 25 µM | > 25 µM | 13.4 µM | > 25 µM | > 25 µM | > 13.7 µM | > 25 µM | > 25 µM | > 19.3 µM | > 25 µM | 6.94 µM | 14.6 µM | > 19.3 µM | 8.66 µM | > 17.8 µM |
| O=C1C(=O)c2c(oc(=O)c3ccccc23)-c2ccccc21 | > 25 µM | > 25 µM | > 25 µM | > 25 µM | > 25 µM | > 25 µM | > 25 µM | > 25 µM | 20.3 µM | > 25 µM | > 25 µM | > 25 µM | > 25 µM | > 25 µM | > 25 µM | > 25 µM | > 25 µM | > 25 µM | > 25 µM |
| COc1ccc(/C=C2\CCC(CNc3cc(C)on3)C2=O)cc1 (stereo not drawn) | > 100 µM | > 100 µM | > 100 µM | > 100 µM | > 100 µM | > 100 µM | > 100 µM | > 100 µM | > 100 µM | > 100 µM | > 100 µM | > 100 µM | > 76.4 µM | > 100 µM | > 100 µM | > 100 µM | > 100 µM | > 91.1 µM | > 100 µM |
| CC12CCC3[C@@H](CC3(C)C)C(O)(CCC1=O)C2 (stereo partly drawn) | > 100 µM | > 100 µM | > 100 µM | > 100 µM | > 100 µM | > 100 µM | > 100 µM | > 100 µM | > 100 µM | > 100 µM | > 100 µM | > 100 µM | > 100 µM | > 100 µM | > 100 µM | > 100 µM | > 100 µM | > 100 µM | > 100 µM |
| COCC(N=CN1CCCc2ccccc2[C@@H]1CCCCl)C(C)(C)C (stereo partly drawn) | 6.27 µM | 0.729 µM | > 100 µM | 10.3 µM | 59 µM | > 100 µM | 17.6 µM | 24.2 µM | 36 µM | 70 µM | 91.4 µM | 34.8 µM | 11.8 µM | 7.68 µM | 23.9 µM | 33.2 µM | 15.5 µM | 84.1 µM | 18.3 µM |
| CCOC(=O)NNC(=O)C1CSC(c2ccccc2)N1C(C)=O (stereo not drawn) | > 100 µM | > 100 µM | > 100 µM | > 100 µM | > 100 µM | > 100 µM | > 100 µM | > 100 µM | > 100 µM | > 100 µM | > 100 µM | > 100 µM | > 100 µM | > 100 µM | > 100 µM | > 100 µM | > 100 µM | > 100 µM | > 100 µM |
| CCN(CC)c1cc2c3c(c1)CCCN3CCC2 | > 10 µM | > 10 µM | > 10 µM | > 10 µM | > 10 µM | > 10 µM | > 10 µM | > 10 µM | > 10 µM | > 10 µM | > 10 µM | > 10 µM | > 10 µM | > 10 µM | > 10 µM | > 10 µM | > 10 µM | > 10 µM | > 10 µM |
| CCCCCCCCCCCCCCCCCCNc1ccn(C2OC(COP(=O)(O)OC3CC(n4cc(F)c(=O)[nH]c4=O)OC3COP(=O)(O)OCC3OC(n4ccc(N)nc4=O)C(O)C3O)C(O)C2O)c(=O)n1 (stereo not drawn) | > 100 µM | > 100 µM | 3.37 µM | > 48.7 µM | 98.2 µM | 39.8 µM | > 100 µM | 20 µM | > 100 µM | > 100 µM | > 66.7 µM | > 50.4 µM | > 100 µM | > 57.3 µM | > 82.2 µM | > 51.9 µM | 29.2 µM | > 100 µM | 23.4 µM |
| CN(C)C=Nc1cccc2nsnc12 | > 100 µM | > 100 µM | > 100 µM | > 100 µM | > 100 µM | > 100 µM | > 100 µM | > 100 µM | > 100 µM | > 100 µM | > 100 µM | > 100 µM | > 100 µM | > 100 µM | > 100 µM | > 100 µM | > 100 µM | > 100 µM | > 100 µM |
| CCOC(=O)C1=CN/C(=C(/C)C(=O)OC)SC1C(=O)OCC (stereo not drawn) | > 100 µM | > 100 µM | > 100 µM | > 100 µM | > 100 µM | > 100 µM | > 100 µM | > 100 µM | > 100 µM | > 100 µM | > 100 µM | > 100 µM | > 100 µM | > 100 µM | > 100 µM | > 100 µM | > 100 µM | > 100 µM | > 100 µM |
| CN(C)C=C1C(=O)c2c(Br)sc(Br)c2C1=O | 29.3 µM | 40.8 µM | > 100 µM | 37.7 µM | > 100 µM | > 100 µM | 46.9 µM | 38.9 µM | 31.7 µM | 93.7 µM | 49.9 µM | 39.6 µM | 43.5 µM | 33 µM | 33.3 µM | 47.5 µM | > 100 µM | > 100 µM | 33.8 µM |
